Consider one substance from patent publication US11246961B2, “Engineered scaffolds for vascularized tissue repair” (The Regents of the University of California, priority 2016, dated 2022).

Experiment [1] has as its system THP-1 monocytes. The experiment is described as follows: attachment assay on ligand treated culture surfaces, THP-1 monocytes. The class given is cell-based. As to conditions: 16 hours. The text has this:
Ligands LXW7, LXY30, and LLP2A were synthesized as in U.S. Pat. No. 9,073,974. Biotinylated LXW7 (LXW7-bio) and biotinylated GRGD (GRGD-bio) (SEQ ID NO: 1) were synthesized using established solid phase peptide synthesis protocols (Xiao et al. (2010) Mol Cancer Therapeutics 9:2714). Peptide-bio was designed to have biotin attached to the side chain of Lys, with two hydrophilic linkers between peptide and Lys (biotin). To modify culture surface with ligands, target culture wells in a 24-well plate were coated with 500 μL of 20 μg/mL Avidin (Thermo Fisher Scientific), and incubated for 1 hour at 37° C. Avidin coated wells were rinsed three times with DPBS and were treated with 500 μL molar equivalents (2 μM) of D-biotin (Thermo Fisher Scientific), LXW7-bio, or GRGD-bio (SEQ ID NO: 1). After 1 hour, the wells were washed three times with DPBS and blocked with 1% bovine serum albumin (BSA; Thermo Fisher Scientific) for 1 hour. After the wells were rinsed three times with DPBS, for cell attachment assay, 5×10^4 HCAECs and THP-1 monocytes suspended in the respective maintenance medium were added to the wells and incubated for 10 minutes or 16 hours at 37° C., 5% CO2, respectively. […] Five images were randomly taken from each sample and quantification of images was performed using the Image J software (NIH).

Experiment [2] addresses T1, integrin αvβ3 (Homo sapiens, UniProt P05106+P06756).
T1 construct: expressed in transfected cells; host or cells: K562 myeloid leukemia cells (αvβ3-K562), provided by Dr. Yoshikazu Takada
The experiment in a line: flow cytometry ligand-cell binding, αvβ3-K562 cells. To be noted: K562 cells highly expressing integrin αvβ3. The protocol:
FIG. 10 presents flow cytometry data from an assay of binding affinity of LXW7 and GRGD (SEQ ID NO: 1) to different cell types. Tests included EPCs/ECs from different sources, including HECFCs (A), HCAECs (B), HMVECs (C), and THP-1 monocytes (D), Platelets (E), as well as K562 cells engineered to highly express αvβ3 (αvβ3-K562, F), and αIIbβ3 (αIIbβ3-K562, G). Cells were incubated with the LXW7-bio, GRGD-bio (SEQ ID NO: 1), or D-Biotin peptide and subsequently incubated with streptavidin-phycoerythrin. Flow cytometry analysis was performed to determine the binding affinity of the ligands. Samples treated with D-biotin were used as negative controls.
Human coronary artery endothelial cells (HCAECs) were purchased from ATCC. Human cardiac microvascular endothelial cells (HMVECs) were purchased from Lonza. THP-1 monocytes were obtained from Dr. Pamela Lein (University of California, Davis). […]
LXW7-bio (1 μM) was incubated with 3×10^5 HECFCs, HCAECs, HMVECs, αvβ3-K562 and αIIbβ3-K562 cells and THP-1 monocytes and 1×10^8 platelets in binding buffer (HEPES containing 10% FBS) on ice for 30 minutes. […] Samples were analyzed on a BD Fortessa LSR Cell Analyzer and further data analysis and gating were performed using FlowJo software (Treestar, Inc.).
In general terms: In flow cytometry, cells or beads pass a laser one at a time.

The subject of experiment [3] is HCAECs. The experiment is described as follows: MTS assay of EC proliferation on LXW7. The class given is cell-based, human. To be noted: vs D-biotin treated surface; up to 5 days. On the procedure:
The 96-well plates from Example 3 were treated with 1 μM Avidin solution for 1 hour at room temperature. Avidin coated wells were rinsed three times with DPBS and treated with LXW7-bio (1 μM), with D-biotin (1 μM) serving as the control. After 1 hour, the wells were washed three times with DPBS and blocked with 1% BSA for 1 hour. 3×10^3 viable HCAECs were seeded per well and cultured in EGM-2 media for 5 days. MTS assay was performed at each day as per the manufacturer instructions (Interchim) and analyzed on SpectraMax-3 plate reader (Molecular Devices).
On the technique in general: Tetrazolium assays rely on reduction of a dye to a coloured formazan, in cell work by metabolically active cells.

T1 sequence (P06756 31-889 limits assumed): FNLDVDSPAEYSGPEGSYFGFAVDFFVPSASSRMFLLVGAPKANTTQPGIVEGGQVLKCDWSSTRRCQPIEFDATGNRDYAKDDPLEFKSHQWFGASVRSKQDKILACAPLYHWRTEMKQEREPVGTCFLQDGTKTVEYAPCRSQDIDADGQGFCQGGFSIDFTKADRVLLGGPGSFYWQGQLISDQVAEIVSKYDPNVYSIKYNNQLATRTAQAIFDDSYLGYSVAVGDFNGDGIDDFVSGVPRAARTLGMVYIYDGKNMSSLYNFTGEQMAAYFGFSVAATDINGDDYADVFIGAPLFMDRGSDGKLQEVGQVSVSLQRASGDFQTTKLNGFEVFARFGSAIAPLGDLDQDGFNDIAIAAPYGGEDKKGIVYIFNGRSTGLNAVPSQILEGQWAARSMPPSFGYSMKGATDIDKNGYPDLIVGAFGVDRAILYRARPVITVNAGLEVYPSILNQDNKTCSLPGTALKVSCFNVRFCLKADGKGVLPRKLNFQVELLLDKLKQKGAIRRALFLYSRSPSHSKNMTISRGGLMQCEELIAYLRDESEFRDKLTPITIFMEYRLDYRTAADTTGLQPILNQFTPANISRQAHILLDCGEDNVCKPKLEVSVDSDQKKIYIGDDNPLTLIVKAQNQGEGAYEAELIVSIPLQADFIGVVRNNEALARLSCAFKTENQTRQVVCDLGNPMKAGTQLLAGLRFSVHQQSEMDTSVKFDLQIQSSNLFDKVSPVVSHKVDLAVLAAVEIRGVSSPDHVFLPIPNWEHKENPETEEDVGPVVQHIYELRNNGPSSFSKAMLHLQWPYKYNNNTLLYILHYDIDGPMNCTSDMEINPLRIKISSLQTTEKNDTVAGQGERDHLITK
T1 sequence (P06756 891-1048 partner limits assumed): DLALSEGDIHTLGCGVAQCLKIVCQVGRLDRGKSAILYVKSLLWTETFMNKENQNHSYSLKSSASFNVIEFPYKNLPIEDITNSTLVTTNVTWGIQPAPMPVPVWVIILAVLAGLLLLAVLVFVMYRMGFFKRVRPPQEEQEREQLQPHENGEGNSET
T1 sequence (P05106 27-788): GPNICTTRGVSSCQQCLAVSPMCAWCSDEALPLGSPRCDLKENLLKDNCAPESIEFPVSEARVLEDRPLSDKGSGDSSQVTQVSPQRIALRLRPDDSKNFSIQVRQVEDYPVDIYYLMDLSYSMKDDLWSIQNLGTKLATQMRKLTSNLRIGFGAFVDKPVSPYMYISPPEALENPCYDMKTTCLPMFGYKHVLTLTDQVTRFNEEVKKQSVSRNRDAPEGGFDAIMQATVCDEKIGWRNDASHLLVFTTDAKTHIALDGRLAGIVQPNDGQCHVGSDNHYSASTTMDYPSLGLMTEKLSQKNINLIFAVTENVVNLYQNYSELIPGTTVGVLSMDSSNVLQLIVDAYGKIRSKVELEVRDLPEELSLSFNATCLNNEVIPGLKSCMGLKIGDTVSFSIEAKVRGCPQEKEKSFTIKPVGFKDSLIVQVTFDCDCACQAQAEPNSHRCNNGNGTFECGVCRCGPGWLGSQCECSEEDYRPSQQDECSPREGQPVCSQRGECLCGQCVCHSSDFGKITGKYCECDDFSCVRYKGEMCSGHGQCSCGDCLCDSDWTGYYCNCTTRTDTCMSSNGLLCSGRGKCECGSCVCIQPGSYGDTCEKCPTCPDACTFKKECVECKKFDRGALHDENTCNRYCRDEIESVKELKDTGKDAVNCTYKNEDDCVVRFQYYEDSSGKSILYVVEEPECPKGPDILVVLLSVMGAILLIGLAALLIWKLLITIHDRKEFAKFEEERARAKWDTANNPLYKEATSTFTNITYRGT

Turning to cGRGDdvc [LXW7], the “THP-1 monocyte attachment on ligand treated surface” value in experiment [1] is “did not support THP-1 monocyte attachment”. Besides, the “binding affinity to αvβ3-K562 cells by flow cytometry” value in experiment [2] is reported as “higher binding affinity than GRGD”. Further, the “EC proliferation on LXW7 treated surface (MTS)” value in experiment [3] is “significantly promoted EC proliferation after 48 hours in culture”.
